Source: patent publication US20220305017A1, “COMPOSITIONS AND METHODS FOR THE TREATMENT OF ESTROGEN-DEPENDENT DISORDERS” (ObsEva S.A., priority 2019, published 2022)

System: human female patients diagnosed as having adenomyosis
Assay: human clinical trial in adenomyosis (single-patient longitudinal case study and multi-patient analysis, n = 6)
Format: in vivo
Details: single patient
From the text: This examples describes the results of a human clinical trial conducted to evaluate the ability of a GnRH antagonist, 3-[2-fluoro-5-(2,3-difluoro-6-methoxybenzyloxy)4-methoxyphenyl]-2,4-dioxo-1,2,3,4-tetrahydrothieno [3,4d]pyrimidine-5-carboxylic acid (represented by formula (VI)), or a pharmaceutically acceptable salt thereof, to treat adenomyosis, an estrogen-dependent disease, in human patients diagnosed as having this condition.
One aim of this study was to investigate the ability of the GnRH antagonist to maintain its therapeutic effects despite being administered to patients in a progressively lower dosage throughout the trial. To this end, the patients treated in this study was first administered the GnRH antagonist of formula (VI) in an amount of 200 mg/day during an initial 12-week period. The GnRH antagonist was then administered to the patients in a reduced amount of 100 mg/day during a subsequent 12-week period. The patients' responsiveness to the GnRH antagonist was monitored throughout the study.
In addition to assessing the effectiveness of the GnRH antagonist when administered at lower doses, another aim of this study was to evaluate the ability of the GnRH antagonist to sustain its therapeutic effects even after treatment was ceased altogether. Accordingly, after being periodically administered the GnRH antagonist of formula (VI) over the course of 24 weeks, first in an amount of 200 mg/day and then in an amount of 100 mg/day, treatment with the GnRH antagonist was halted entirely. The patients were then monitored during a post-treatment follow-up period to analyze the extent to which the therapeutic effects of the compound were sustained.
To test the effects of compound (VI), a total of n=6 human female patients diagnosed as having adenomyosis were administered compound (VI) in accordance with the dosing schedule described above. One of these patients in particular was closely monitored beginning well before their treatment with compound (VI) was initiated. The specific results of this patient's therapy are described in the section entitled “Single-Patient Longitudinal Case Study,” below. The cumulative set of results for all 6 patients is reported in the section entitled “Multi-Patient Analysis,” below.
As part of the clinical trial, a case study was conducted in which a single patient of reproductive age having clinically diagnosed adenomyosis was monitored during the course of treatment with compound (VI). The patient was nulliparous. Two years before the study began, the patient presented with heavy menstrual bleeding, pelvic pain, and dysmenorrhea. […] Their gynecologist prescribed ulipristal acetate (UPA), a selective progesterone receptor modulator (SPRM), to be administered in an amount of 5 mg/day over the course of a treatment period lasting three months.
The patient was then recommended for treatment with the GnRH antagonist represented by formula (VI) herein. Accordingly, the patient was orally administered compound (VI) in an amount of 200 mg/day for three months. Following this initial three-month period, the patient was orally administered compound (VI) in a reduced amount of 100 mg/day for a subsequent three-period. During both treatment periods, compound (VI) was administered to the patient in the form of a choline salt.
The patient was recommended for once-daily treatment with the GnRH antagonist of formula (VI). Accordingly, the patient was administered the GnRH antagonist of formula (VI) in an amount of 200 mg/day during a first treatment period, which lasted three months. At the conclusion of the first treatment period, the patient began a second treatment period in which they were administered compound (VI) in a reduced amount of 100 mg/day for three months. During both treatment periods, compound (VI) was administered to the patient in the form of a choline salt. […]

bleeding during treatment (5 mg/day for three months): breakthrough bleeding and spotting
SMILES: CC(=O)O[C@]1(C(C)=O)CC[C@H]2[C@@H]3CCC4=CC(=O)CCC4=C3[C@@H](c3ccc(N(C)C)cc3)C[C@@]21C [UPA, ulipristal acetate, reference compound]
symptoms of pelvic pain and dysmenorrhea (5 mg/day for three months, before compound (VI)): worsened | adenomyotic lesions by MRI (end of 5 mg/day three-month course, FIG. 4B): significantly increased quantity of adenomyotic lesions
